Test results published in paper PMC7883289, “Synthesis of Paeonol-Ozagrel Conjugate: Structure Characterization and In Vivo Anti-Ischemic Stroke potential” (Frontiers in Pharmacology, 2021).

Key:
[1] = test system: middle cerebral artery occlusion (MCAO) rats; test: Measurement of infarct volume by TTC staining in MCAO rats; assay type: in vivo; details: 24 h after reperfusion, single iv dose: paeonol and OS 3 mg/kg, POC 4.5 mg/kg, n = 6
Experimental: Male Sprague Dawley (SD) rats weighing among 220 g-230 g (Anhui Medicine University, Hefei, China; certificate number: SCXK20190,003) were housed under ad libitum access to food and water with a standardized light-dark cycle condition (25 ± 2°C, 12-hour light/dark cycle). All the experimental protocols were performed in accordance with the Institutional Animal Care and Use Committee of Anhui University of Chinese Medicine (Animal ethics number: AHUCM-rats-2019001). We used the minimal number of study animals (n = 6 rats in each group for different experiments). The rats were fastened upon the operating table in a supine position after being anesthetized with 2% pelltobarbitalum natricum (50 mg/kg). After disinfection of the skin within close proximity of the operative region, the right common carotid artery (CCA), external carotid artery (ECA) and internal carotid artery (ICA) were exposed with blunt dissection. The CCA was temporarily ligated and the ECA were permanently ligated ([Liu et al., 2016]). A nylon monofilament surgical thread was introduced into the ICA to block the MCA when the blunted distal end met resistance. After 2 h of occlusion, reperfusion was accomplished to restore blood supply to the MCA area by removing the filament ([Li et al., 2009]; [Zhai et al., 2017]). […] Rats were split randomly into five groups, including the sham, model, paeonol, OS and POC group. After 2 h of reperfusion, the paeonol and OS groups received the drug by intravenous injection at a single dose of 3 mg/kg ([Imamura et al., 2003]; [Park et al., 2010]; [Gai et al., 2019]), which the doses of paeonol and OS uesd previously were benificial in rats and the dose of OS is within the clinical dose range. […] Cerebral infarction volume was determined using TTC staining. […] The infarction and total brain volume were quantified using ImageJ software. The infarct volume was calculated as a ratio of the infarcted tissue relative to the total area of the whole-brain coronal section ([Ye and Gao, 2008]; [Katayama et al., 2017]). […]

TXA2 = test: ELISA assay for TXA2 in brain tissue and blood of MCAO rats; assay type: in vivo; details: paeonol and OS 3 mg/kg, POC 4.5 mg/kg iv, n = 6
Experimental: Male Sprague Dawley (SD) rats weighing among 220 g-230 g (Anhui Medicine University, Hefei, China; certificate number: SCXK20190,003) were housed under ad libitum access to food and water with a standardized light-dark cycle condition (25 ± 2°C, 12-hour light/dark cycle). All the experimental protocols were performed in accordance with the Institutional Animal Care and Use Committee of Anhui University of Chinese Medicine (Animal ethics number: AHUCM-rats-2019001). We used the minimal number of study animals (n = 6 rats in each group for different experiments). The rats were fastened upon the operating table in a supine position after being anesthetized with 2% pelltobarbitalum natricum (50 mg/kg). After disinfection of the skin within close proximity of the operative region, the right common carotid artery (CCA), external carotid artery (ECA) and internal carotid artery (ICA) were exposed with blunt dissection. The CCA was temporarily ligated and the ECA were permanently ligated ([Liu et al., 2016]). […] According to the manufacturer's instructions, the levels of inflammatory cytokines (IL - 6, IL-1β, TNF-α; R&D Systems, Minneapolis, MN, United States) and TXA2 (Wuhan ColorfulGene Biological Technology Co., LTD) were detected using the commercial ELISA kits. The resultant colored products were measured the absorbance at 450 nm. […]

SMILES: COc1ccc(C(C)=O)c(OC(=O)C=Cc2ccc(Cn3ccnc3)cc2)c1 [POC, paeonol-ozagrel conjugate]
- cerebral infarction volume percentage [1]: 11.77% ± 2.53
- levels of TXA2 in blood (plasma) (TXA2; blood/plasma): decreasing levels
- levels of TXA2 in brain (TXA2; brain tissue): decreasing levels
